Measured values reported in ChEMBL document CHEMBL1201862, “PubChem BioAssay data set” (2004).
Active and inactive are the calls of the source.

What was measured:
H9c2 = test: cells; type: functional, cell-based; conditions: Rattus norvegicus, H9c2, Myocardium;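 also: confirmatory concentration-response retest of ultra-high-throughput screening hits for modulation of myocardial damage; cell death induced by hydrogen peroxide oxidative stress; compound pretreatment for 60 min then peroxide exposure for 2 h; potency is for protecting the cells against peroxide damage rather than for killing them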
[1] = IC50 of Artemis nuclease activity blockers – biochemical, fluorescence intensity, dose response (AID 720701); type: functional;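 also: Artemis endonuclease enzyme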
Vero [2] = test: mammalian cell viability reduction – secondary assay, cytotoxicity control for West Nile virus antiviral project, dose response (AID 1650); type: functional; conditions: Chlorocebus sabaeus
Vero [3] = test: inhibition of WNV-induced cytopathic effect – cell-based, CPE readout (AID 1621); type: functional; conditions: Chlorocebus sabaeus
[4] = non-specific 3'UTR reporter inhibition in Clone20-Shn3RL – cell-based, Renilla luciferase, cherry-picked, counter-screen for Shn3 inhibitor project, dose response (AID 624133); type: functional
[5] = target: T1, COUP transcription factor 2 (Homo sapiens, UniProt P24468); test: Luminescence-based cell-based high throughput dose response assay to identify inhibitors of COUP-TFII (NR2F2).; type: functional;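 also: HEK293 cells transiently cotransfected with COUP-TFII expression vector and reporter; luciferase reporter luminescence driven by COUP-TFII from the pX2-168 reporter plasmid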
T1 sequence (P24468 whole entry): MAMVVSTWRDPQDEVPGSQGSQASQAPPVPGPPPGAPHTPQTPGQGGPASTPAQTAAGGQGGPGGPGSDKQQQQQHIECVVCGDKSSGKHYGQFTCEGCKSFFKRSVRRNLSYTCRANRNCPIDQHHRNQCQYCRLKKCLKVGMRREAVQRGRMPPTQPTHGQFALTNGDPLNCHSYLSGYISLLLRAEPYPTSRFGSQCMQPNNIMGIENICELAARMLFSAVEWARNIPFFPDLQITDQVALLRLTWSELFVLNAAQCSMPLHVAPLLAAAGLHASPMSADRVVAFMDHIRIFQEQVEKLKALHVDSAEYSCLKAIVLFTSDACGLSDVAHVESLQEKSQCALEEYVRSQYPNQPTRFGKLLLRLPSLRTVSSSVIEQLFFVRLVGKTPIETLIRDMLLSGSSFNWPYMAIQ

[6] = reduced cellular PGC1a acetyl-lysine signal – cell-based, cherry-picked samples, dose response (AID 720514); type: functional;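 also: potency may reflect raised or lowered acetylation signal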
[7] = target: T2, Heat shock factor protein 1 (Mus musculus, UniProt P38532); test: decrease of HSF1-responsive luciferase luminescence – cell-based, NIH3T3, dose retest, confirmation (AID 2382); type: functional;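 also: NIH3T3 fibroblasts with HSF1-driven luciferase reporter stressed by proteasome inhibitor MG132; luminescence from HSF1-driven luciferase expression after 8 hours of MG132 stress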
T2 sequence (P38532 whole entry): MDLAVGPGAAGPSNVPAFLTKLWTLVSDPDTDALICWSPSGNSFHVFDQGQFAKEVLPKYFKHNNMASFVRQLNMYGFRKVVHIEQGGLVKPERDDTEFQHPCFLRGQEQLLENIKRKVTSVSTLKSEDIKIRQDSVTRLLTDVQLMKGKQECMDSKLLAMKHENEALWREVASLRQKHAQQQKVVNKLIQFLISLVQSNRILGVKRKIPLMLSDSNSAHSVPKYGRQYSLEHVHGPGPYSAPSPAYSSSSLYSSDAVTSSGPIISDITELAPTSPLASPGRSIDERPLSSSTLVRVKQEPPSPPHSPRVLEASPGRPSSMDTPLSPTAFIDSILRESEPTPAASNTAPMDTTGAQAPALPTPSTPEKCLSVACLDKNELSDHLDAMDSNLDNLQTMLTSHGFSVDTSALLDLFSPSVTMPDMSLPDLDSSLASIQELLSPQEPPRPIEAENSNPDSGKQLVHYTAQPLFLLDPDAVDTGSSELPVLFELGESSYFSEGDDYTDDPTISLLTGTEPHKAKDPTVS

[8] = Trypanosoma cruzi growth suppression in host cells – NIH3T3 host cells, beta-gal luminescence, confirmation (AID 2044); type: functional, cell-based;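 also: intracellular parasites grown in NIH/3T3 mouse fibroblasts as host cells; luminescent beta-galactosidase reporter signal from transgenic T. cruzi replicating inside host cells; inhibitors lower the luminescence signal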
[9] = loss of viability in HepG2 cells – cell-based, CellTiter-Glo, cherry-picked, cytotoxicity control for Shn3 inhibitor project, dose response (AID 624134); type: functional
[10] = target: Heat shock protein HSP 90-alpha (Homo sapiens, UniProt P07900); type: functional, organism-based
[11] = reduction of Shn3 3'UTR-driven luciferase in osteoblasts – cell-based, Clone20 osteoblasts, firefly luciferase, cherry-picked, dose response (AID 624132); type: functional;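 also: firefly luciferase luminescence from reporter carrying the Shn3 3'UTR in osteoblasts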
[12] = toxicity to human hepatoma HepG2 cells – cell-based, cherry-picked samples, cytotoxicity control, dose response (AID 1159577); type: functional
[13] = P. falciparum Dd2 growth inhibitors, dose response, SYBR Green, cherry-picked samples (AID 1159567); type: functional, cell-based
[14] = target: T3, Epstein-Barr nuclear antigen 1 (Epstein-Barr virus (strain B95-8) (HHV-4) (Human herpesvirus 4), UniProt P03211); test: inhibition of EBV nuclear antigen 1 DNA binding – biochemical, fluorescence polarization, 1536-well, dose response (AID 2381); design: species or system human gammaherpesvirus 4;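 also: fluorescence polarization of a Cy5 DNA probe bound by EBNA-1 protein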
T3 sequence (P03211 whole entry): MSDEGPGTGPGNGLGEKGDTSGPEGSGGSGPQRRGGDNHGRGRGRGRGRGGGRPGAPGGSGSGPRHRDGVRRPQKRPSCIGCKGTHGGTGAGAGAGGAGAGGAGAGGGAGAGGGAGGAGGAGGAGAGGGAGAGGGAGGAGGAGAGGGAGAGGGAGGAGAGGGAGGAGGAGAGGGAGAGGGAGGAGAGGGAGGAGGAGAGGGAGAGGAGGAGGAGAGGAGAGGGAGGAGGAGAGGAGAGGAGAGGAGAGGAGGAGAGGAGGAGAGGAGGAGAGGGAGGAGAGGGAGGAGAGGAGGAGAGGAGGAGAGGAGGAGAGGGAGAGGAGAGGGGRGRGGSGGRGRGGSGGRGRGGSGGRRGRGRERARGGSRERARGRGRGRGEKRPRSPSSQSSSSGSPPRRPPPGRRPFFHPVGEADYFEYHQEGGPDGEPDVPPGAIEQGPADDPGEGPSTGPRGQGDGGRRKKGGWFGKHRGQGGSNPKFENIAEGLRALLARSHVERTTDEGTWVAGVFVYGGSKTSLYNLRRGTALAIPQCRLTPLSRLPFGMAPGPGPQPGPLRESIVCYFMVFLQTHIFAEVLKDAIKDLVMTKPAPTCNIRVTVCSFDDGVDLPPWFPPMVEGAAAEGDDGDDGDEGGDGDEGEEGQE

[15] = target: T4, Lytic switch protein BZLF1 (Epstein-Barr virus (strain B95-8) (HHV-4) (Human herpesvirus 4), UniProt P03206); test: inhibition of BZLF1 ZTA DNA binding – biochemical, fluorescence polarization, Epstein-Barr virus, 1536-well, counter-screen for EBNA-1 inhibitor project, dose response (AID 2377); design: species or system human gammaherpesvirus 4;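 also: fluorescence polarization of Cy5-labelled ZRE DNA probe bound by purified Zta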
T4 sequence (P03206 whole entry): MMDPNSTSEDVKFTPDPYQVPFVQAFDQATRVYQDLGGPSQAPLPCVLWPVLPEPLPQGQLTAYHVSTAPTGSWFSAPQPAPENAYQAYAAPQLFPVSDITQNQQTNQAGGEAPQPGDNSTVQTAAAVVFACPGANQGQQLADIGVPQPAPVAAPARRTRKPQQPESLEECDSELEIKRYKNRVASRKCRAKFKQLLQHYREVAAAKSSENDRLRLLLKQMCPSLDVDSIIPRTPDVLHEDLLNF

Coagulation factor XII = target: T5, Coagulation factor XII (Homo sapiens, UniProt P00748); type: functional;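 also: activated factor XIIa alpha cleaving a fluorogenic AMC peptide substrate; inhibitor potency from loss of enzyme activity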
T5 sequence (P00748 whole entry): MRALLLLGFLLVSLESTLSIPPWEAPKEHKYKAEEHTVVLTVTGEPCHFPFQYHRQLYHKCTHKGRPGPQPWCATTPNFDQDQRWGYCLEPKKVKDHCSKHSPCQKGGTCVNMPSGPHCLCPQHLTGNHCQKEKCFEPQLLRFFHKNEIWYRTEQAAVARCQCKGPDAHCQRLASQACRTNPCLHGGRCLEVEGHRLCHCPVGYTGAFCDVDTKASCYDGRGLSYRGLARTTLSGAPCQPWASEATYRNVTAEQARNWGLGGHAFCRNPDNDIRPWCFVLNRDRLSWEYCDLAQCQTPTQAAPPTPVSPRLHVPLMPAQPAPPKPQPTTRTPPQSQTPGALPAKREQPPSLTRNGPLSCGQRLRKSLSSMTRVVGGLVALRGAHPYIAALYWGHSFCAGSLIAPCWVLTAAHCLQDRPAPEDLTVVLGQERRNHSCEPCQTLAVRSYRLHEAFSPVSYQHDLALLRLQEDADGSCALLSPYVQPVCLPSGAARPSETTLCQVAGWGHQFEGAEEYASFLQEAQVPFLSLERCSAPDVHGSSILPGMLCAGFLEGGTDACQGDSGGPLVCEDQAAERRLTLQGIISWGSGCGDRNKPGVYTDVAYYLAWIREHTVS

[16] = HIV-1 Vif–A3G interaction blockers – biochemical, TR-FRET, GST-Vif 1-94, biotin-A3G peptide, dose response retest, primary screen (AID 1117319); type: functional;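 also: TR-FRET signal of purified GST-Vif binding a biotinylated A3G peptide; inhibitors lower the FRET signal by blocking Vif and A3G binding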
[17] = M. tuberculosis H37Rv growth inhibitors, H37Rv strain (AID 1626); type: functional
[18] = viability loss in Vero cells – cytotoxicity control for Vif-APOBEC3G degradation inhibitor project, dose response (AID 1117358); type: functional; conditions: Vero

**Q.** Which IC50 (H9c2) does the source give for `Cc1nc(NC(=O)c2cc3c(C)nn(-c4ccccc4)c3s2)sc1C(=O)Nc1ccccc1` here?
**A.** > 79 µM (inactive)

**Q.** And the IC50 [1]?
**A.** 1.22 µM (active)

**Q.** Which CC50 (Vero [2]) does the source give for `COC(=O)c1c(NC(=O)C(Cl)Cl)sc2c1C(C(=O)OC)CC2` (stereo not drawn) here?
**A.** 34.8 µM (active)

**Q.** And the IC50 (Vero [3])?
**A.** 27.8 µM (active)

**Q.** Which results are given for `C[C@H]1C[C@@H](C)C(=O)[C@@H]([C@H](O)CC2CC(=O)NC(=O)C2)C1`?
**A.** CC50 (Vero [2]): 0.96 µM (active); AC50 [4]: 2.18 µM (active); IC50 [5]: 1.03 µM (active); AC50 [6]: 4.92 µM (active); IC50 (Vero [3]): 0.43 µM (active); EC50 [7]: 0.66 µM (active); EC50 [8]: < 0.1 µM (active); AC50 [9]: > 70 µM (inactive); AC50 [10]: < 0.195 µM (active); EC50 (cells): < 0.004 µM (active); AC50 [11]: 0.307 µM (active)

**Q.** What does the source list for `N#C[C@@H]1[C@H](c2ccc(C#CC3CCCCC3)cc2)[C@@H](CO)N1C(=O)Nc1ccc(F)cc1`?
**A.** AC50 [12]: 14 µM (active); AC50 [13]: 7.33 µM (active)

**Q.** Which IC50 [14] does the source give for `CN1C(=O)N(C)C2(c3ccccc3)Nn3c(s/c(=C/c4ccco4)c3=O)=NC12c1ccccc1` (stereo not drawn) here?
**A.** > 5.47 µM (active)

**Q.** What about the IC50 [15] of the same compound?
**A.** > 111 µM (not active)

**Q.** For `O=C1CN(C(=O)COC(=O)c2oc3ccccc3c2COc2ccccc2)c2ccccc2N1`, which IC50 (Coagulation factor XII) is on record?
**A.** > 50 µM (inactive)

**Q.** And the IC50 [16]?
**A.** > 100 µM (active)

**Q.** For `CCOC(=O)c1ccc(NC(=O)CCc2c(C)nc3ncnn3c2C)cc1`, which IC50 [17] is on record?
**A.** > 100 µM (active)

**Q.** With `CCc1nnc(NC(=O)c2ccc(S(=O)(=O)N(CC(C)C)CC(C)C)cc2)o1` as the compound, how does the CC50 [18] read?
**A.** > 40 µM (active)
